According to patent US9018208B2, “Heterocycles as potassium channel modulators” (Icagen Inc., priority 2007, dated 2015):
Like-named read-outs stand apart in the source and are kept apart here.

Columns and labels:
[1] = system: SH-SY5Y M-currents (KCNQ2, KCNQ3 and KCNQ5); experiment: SH-SY5Y native cell line FLIPR assay (voltage-sensitive dye DiBAC); format: cell-based, mouse neuroblastoma, rat glioma hybrid cell line
How it was run: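 Response is peak DiBAC fluorescence change, normalised to the maximum from a positive control agent, sampled every 30 s over 25 min. Before compound addition, SH-SY5Y cells differentiated with PGE1 plus isomethylbutylxanthine were dye-loaded for 1 h in EBSS with […] DiBAC.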

[2] = system: electroshock seizure, Male Wistar rats; experiment: In vivo rat assay for anti-convulsant activity (rat MES, electroshock seizure); conditions: for Rat MES activity: single dose screening, oral, typically 10 mg/kg, animals protected from hind limb extension
Description: Male Wistar rats were housed 4 per cage on a regular light/dark cycle (lights on 0600-1800) for one week prior to anti-convulsant testing. The apparatus used to induce electroshock seizure was obtained from Walhquist Instrument Co., Salt Lake City, Utah. The shock level was set at 150 mA and the duration at 0.2 seconds. A drop of 1% proparacaine solution was placed in each eye of a rat, the electrodes were placed over the eyes, and the shock was administered. Latency to hind limb extension was measured to the nearest 0.1 second.
The KCNQ opener was homogenized in either 0.5% carboxymethylcellulose in water or 0.5% methylcellulose in water) and administered orally through a steel 18-gauge rat gavage tube in a volume of 2 mL/kg of body weight. In the single dose screening assay, latency to seizure for the vehicle group and the KCNQ opener group were compared using t-test. Typically a dose of 10 mg/kg of the opener is used. However, openers can be run n a dose-response experiment where doses of 1, 3, 10 and 30 mg/Kg are used.
In the single dose screening assay, latency to seizure for the vehicle and the 10 mg/kg groups were compared using t-test. Latencies to seizure in the dose response studies were submitted to analysis of variance and all dose groups were compared to vehicle using Dunnett's method (JMP© ver 5.1, SAS). In all cases an effect was considered significant if p≦0.05.

[3] = FLIPR assay, SH-SY5Y native cell line, Table 1, read-out: SH-SY5Y EC50
[4] = FLIPR assay, SH-SY5Y native cell line, Table 2, read-out: SH-SY5Y EC50
[5] = FLIPR assay, SH-SY5Y native cell line, Table 4, read-out: SH-SY5Y EC50
[6] = FLIPR assay, SH-SY5Y native cell line, Table 5, read-out: SH-SY5Y EC50
[7] = SH-SY5Y native cell line, FLIPR assay (Table 6), read-out: SH-SY5Y EC50

For CC(C)(C)Cc1c(NC(=O)Cc2ccccc2)nc2ccc(C(F)(F)F)cn12 [Compound 20, N-(3-neopentyl-6-(trifluoromethyl)imidazo[1,2-a]pyridin-2-yl)-2-phenylacetamide], which EC50 [1, 3] is on record?
The EC50 was < 500 nM.

And the “Rat MES activity” value [2]?
Its value is “+ (+ 2-3 animals protected)”.

Which EC50 [1, 3] does the source give for CC(CC(=O)Nc1nc2ccc(C(F)(F)F)cn2c1CC(C)(C)C)C(F)(F)F (stereo not shown) [Compound 23, 4,4,4-trifluoro-3-methyl-N-(3-neopentyl-6-(trifluoromethyl)imidazoyl)butanamide] here?
The EC50 was < 500 nM.

What about the “Rat MES activity” value [2] of the same compound?
The value was “+ (+ 2-3 animals protected)”.

How did the EC50 [1, 3] turn out when CC(C)(C)CCC(=O)Nc1nc2ccc(C(F)(F)F)cn2c1CC(C)(C)C [Compound 24, 4,4-dimethyl-N-(3-neopentyl-6-(trifluoromethyl)imidazo[1,2-a]pyridin-2-yl)pentanamide] was run?
Its EC50 is < 500 nM.

What about the “Rat MES activity” value [2] of the same compound?
The value was “+ (+ 2-3 animals protected)”.

Which results are given for CC(C)(C)CC(=O)Nc1nc2ccc(C(F)(F)F)cn2c1CC1CCCCC1 [Compound 32, N-(3-(cyclohexylmethyl)-6-(trifluoromethyl)imidazo[1,2-a]pyridin-2-yl)-3,3-dimethylbutanamide]?
EC50 [1, 3]: < 500 nM; Rat MES activity [2]: + (+ 2-3 animals protected)

What does the source list for O=C(Cc1ccccc1)Nc1nc2ccc(C(F)(F)F)cn2c1C1CCCCC1 [Compound 38, N-(3-cyclohexyl-6-(trifluoromethyl)imidazo[1,2-a]pyridin-2-yl)-2-phenylacetamide]?
EC50 [1, 3]: < 500 nM; Rat MES activity [2]: ++ (++ 4-6 animals protected)

For CC(C)(C)Cc1c(NC(=O)C2CCCC2)nc2ccc(C(F)(F)F)cn12 [Compound 51, N-(3-neopentyl-6-(trifluoromethyl)imidazo[1,2-a]pyridin-2-yl)cyclopentanecarboxamide], which EC50 [1, 3] is on record?
The EC50 was < 500 nM.

And the “Rat MES activity” value [2]?
The value was “++ (++ 4-6 animals protected)”.

With Cc1ccc2nc(NC(=O)CC(C)C(F)(F)F)c(CC(C)(C)C)n2n1 (stereo not shown) [Compound 68, 4,4,4-trifluoro-3-methyl-N-(6-methyl-3-neopentylimidazo[1,2-b]pyridazin-2-yl)butanamide] as the compound, how does the EC50 [1, 3] read?
Its EC50 is < 500 nM.

What about the “Rat MES activity” value [2] of the same compound?
The value was “+++ (+++ 7-8 animals protected)”.

What does the source list for C[C@H](CC(=O)Nc1nc2ccc(C(F)(F)F)cn2c1C1CC1)C(F)(F)F [Compound 89, (R)—N-(3-cyclopropyl-6-(trifluoromethyl)imidazo[1,2-a]pyridin-2-yl)-4,4,4-trifluoro-3-methylbutanamide]?
EC50 [1, 3]: 500 to 3000 nM; ED50 ([2]; Rattus norvegicus, po, rat MES dose-response): 5.8 mg/kg; Rat MES activity [2]: +++ (+++ 7-8 animals protected)

CC(C)(C)CC(=O)Nc1nc2ccc(F)cn2c1-c1ccc(C(F)(F)F)cc1 [Compound 128, N-(6-fluoro-3-(4-(trifluoromethyl)phenyl)imidazo[1,2-a]pyridin-2-yl)-3,3-dimethylbutanamide] was tested. Which EC50 [1, 4] did it give?
The EC50 was < 500 nM.

What about the “Rat MES activity” value [2] of the same compound?
The value was “+++ (+++ 7-8 animals protected)”.

Which EC50 [1, 4] does the source give for CC1(CC(=O)Nc2nc3ccc(F)cn3c2-c2ccc(C(F)(F)F)cc2)CCCC1 [Compound 180, N-(6-fluoro-3-(4-(trifluoromethyl)phenyl)imidazo[1,2-a]pyridin-2-yl)-2-(1-methylcyclopentyl)acetamide] here?
The EC50 was < 500 nM.

And the “Rat MES activity” value [2]?
The value was “++ (++ 4-6 animals protected)”.

Which results are given for CC(C)(C)CC(=O)Nc1nc2ccc(F)cn2c1-c1cc(F)cc(C(F)(F)F)c1 [Compound 198, N-(6-fluoro-3-(3-fluoro-5-(trifluoromethyl)phenyl)imidazo[1,2-a]pyridin-2-yl)-3,3-dimethylbutanamide]?
EC50 [1, 4]: < 500 nM; Rat MES activity [2]: +++ (+++ 7-8 animals protected)

Which EC50 [1, 4] does the source give for CC(C)(C)CC(=O)Nc1nc2ccccn2c1-c1ccc(OC(F)(F)F)cc1 [Compound 225, 3,3-dimethyl-N-(3-(4-(trifluoromethoxy)phenyl)imidazo[1,2-a]pyridin-2-yl)butanamide] here?
The EC50 was < 500 nM.

And the “Rat MES activity” value [2]?
Its value is “++ (++ 4-6 animals protected)”.

What does the source list for Cc1cccc2nc(NC(=O)CC(C)(C)C)c(-c3cccc(C(F)(F)F)c3)n12 [Compound 419, 3,3-dimethyl-N-(5-methyl-3-(3-(trifluoromethyl)phenyl)imidazo[1,2-a]pyridin-2-yl)butanamide]?
EC50 [1, 5]: < 500 nM; EC50 ([1]; unit inferred, read-out: SH-SY5Y_EC50): 340 nM

For Cc1cccc2nc(NC(=O)CC(C)C(F)(F)F)c(-c3cccc(C(F)(F)F)c3)n12 (stereo not shown) [Compound 420, 4,4,4-trifluoro-3-methyl-N-(5-methyl-3-(3-(trifluoromethyl)phenyl)imidazo[1,2-a]pyridin-2-yl)butanamide], which EC50 [1, 5] is on record?
Its EC50 is 500 to 3000 nM.

For Cc1c(NC(=O)C(F)(F)F)nc2ccc(F)cn12 [Compound 421, 2,2,2-trifluoro-N-(6-fluoro-3-methylimidazo[1,2-a]pyridin-2-yl)acetamide], which EC50 [1, 6] is on record?
Its EC50 is 3000 to 10000 nM.

Which EC50 [1, 6] does the source give for Cc1c(NC(=O)Cc2ccc(F)cc2)nc2ccc(F)cn12 [Compound 422, N-(6-fluoro-3-methylimidazo[1,2-a]pyridin-2-yl)-2-(4-fluorophenyl)acetamide] here?
The EC50 was 3000 to 10000 nM.

For Cc1c(NC(=O)CC(C)(C)C)nc2ccc(F)cn12 [Compound 423, N-(6-fluoro-3-methylimidazo[1,2-a]pyridin-2-yl)-3,3-dimethylbutanamide], which EC50 [1, 6] is on record?
Its EC50 is 3000 to 10000 nM.

What does the source list for Cc1c(NC(=O)CC(F)(F)F)nc2ccc(F)cn12 [Compound 424, 3,3,3-trifluoro-N-(6-fluoro-3-methylimidazo[1,2-a]pyridin-2-yl)propanamide]?
EC50 [1, 6]: 3000 to 10000 nM; EC50 ([1]; read-out: SH-SY5Y_EC50): 10000 nM

For C=Cc1c(NC(=O)Cc2ccc(F)cc2)nc2ccc(F)cn12 [Compound 425, N-(6-fluoro-3-vinylimidazo[1,2-a]pyridin-2-yl)-2-(4-fluorophenyl)acetamide], which EC50 [1, 6] is on record?
Its EC50 is 500 to 3000 nM.

With C=Cc1c(NC(=O)Cc2ccc(F)cc2)nc2cc(C(F)(F)F)ccn12 [Compound 426, 2-(4-fluorophenyl)-N-(7-(trifluoromethyl)-3-vinylimidazo[1,2-a]pyridin-2-yl)acetamide] as the compound, how does the EC50 [1, 6] read?
Its EC50 is 500 to 3000 nM.

With C=Cc1c(NC(=O)CC(F)(F)F)nc2cc(C(F)(F)F)ccn12 [Compound 427, 3,3,3-trifluoro-N-(7-(trifluoromethyl)-3-vinylimidazo[1,2-a]pyridin-2-yl)propanamide] as the compound, how does the EC50 [1, 6] read?
Its EC50 is 3000 to 10000 nM.

With CC(C)(CC(=O)Nc1nc2ccc(C(F)(F)F)cn2c1C1CC1)C(F)(F)F [Compound 432, N-(3-cyclopropyl-6-(trifluoromethyl)imidazo[1,2-a]pyridin-2-yl)-4,4,4-trifluoro-3,3-dimethylbutanamide] as the compound, how does the EC50 [1, 7] read?
The EC50 was < 500 nM.

How did the EC50 [1, 7] turn out when CC(C)(C)Cc1c(NC(=O)CC(C)(C)C(F)(F)F)nc2ccc(C(F)(F)F)cn12 [Compound 440, 4,4,4-trifluoro-3,3-dimethyl-N-(3-neopentyl-6-(trifluoromethyl)imidazo[1,2-a]pyridin-2-yl)butanamide] was run?
The EC50 was < 500 nM.

CC(C)(CC(=O)Nc1nc2ccc(C(F)(F)F)cn2c1C1CCCCC1)C(F)(F)F [Compound 441, N-(3-cyclohexyl-6-(trifluoromethyl)imidazo[1,2-a]pyridin-2-yl)-4,4,4-trifluoro-3,3-dimethylbutanamide] was tested. Which EC50 [1, 7] did it give?
Its EC50 is < 500 nM.

For CC(C)(CC(=O)Nc1nc2ccc(C(F)(F)F)cn2c1C1CCCC1)C(F)(F)F [Compound 442, N-(3-cyclopentyl-6-(trifluoromethyl)imidazo[1,2-a]pyridin-2-yl)-4,4,4-trifluoro-3,3-dimethylbutanamide], which EC50 [1, 7] is on record?
Its EC50 is < 500 nM.

How did the EC50 [1, 7] turn out when CC(C)CCc1c(NC(=O)CC(C)(C)C(F)(F)F)nc2ccc(C(F)(F)F)cn12 [Compound 443, 4,4,4-trifluoro-N-(3-isopentyl-6-(trifluoromethyl)imidazo[1,2-a]pyridin-2-yl)-3,3-dimethylbutanamide] was run?
The EC50 was < 500 nM.

Which EC50 [1, 7] does the source give for CC(C)(CC(=O)Nc1nc2ccc(F)cn2c1CC1CCCCC1)C(F)(F)F [Compound 444, N-(3-(cyclohexylmethyl)-6-fluoroimidazo[1,2-a]pyridin-2-yl)-4,4,4-trifluoro-3,3-dimethylbutanamide] here?
The EC50 was < 500 nM.

How did the EC50 [1, 7] turn out when CC1(CC(=O)Nc2nc3ccc(C(F)(F)F)nn3c2C2CC2)CCCC1 [Compound 445, N-(3-cyclopropyl-6-(trifluoromethyl)imidazo[1,2-b]pyridazin-2-yl)-2-(1-methylcyclopentyl)acetamide] was run?
The EC50 was < 500 nM.

For O=C(Nc1nc2ccc(C(F)(F)F)nn2c1C1CCCC1)c1ccc(F)c(F)c1 [Compound 447, N-(3-cyclopentyl-6-(trifluoromethyl)imidazo[1,2-b]pyridazin-2-yl)-3,4,-difluorobenzamide], which EC50 [1, 7] is on record?
Its EC50 is 500 to 3000 nM.

“N-(6-fluoro-3-(3-(trifluoromethoxy)phenyl)imidazo yl)cycloheptanecarboxamide [Compound 293]” was tested. Which EC50 [1, 4] did it give?
Its EC50 is < 500 nM.

For “N-(6-fluoro-3-(3-(trifluoromethyl)phenyl)imidazo yl)cycloheptanecarboxamide [Compound 294]”, which EC50 [1, 4] is on record?
The EC50 was < 500 nM.
